Data: US20260272965A1, “SELEN[…] OF GLY[…] ANTI-INFLAMMATORY AND ANTIVIRAL PHARMACEUTICALS” (priority 2023, published 2026)
Entries after “also recorded” stand apart in the source; their conditions may differ.

Columns and labels:
[1] = tested on: HSV-1; type: cell-based, Herpes simplex 1; details: Vero cells, 4 hour treatment, low multiplicity HSV-1
[2] = tested on: HSV-2 GFP+ (bHSV2-BAC38-S1); test: HSV-2 GFP+ infection of MRC5 cells, live-cell fluorescence imaging; type: cell-based; details: for inhibition of fluorescent HSV-2 GFP+ infected cells: 24 hours post infection, 125 μM (FIG. 5A)
Method: FIG. 5A. Fluorescent images of MRC5 cells infected with HSV-2 GFP+(bHSV2-BAC38-S1). Images taken at 0 and 24 hours post infection using an Incucyte S3 Live-Cell Analysis System. Acyclovir at a matched concentration (125 μM) was used as a positive control. FIG. 5B. Live cell imaging analysis of triplicate wells infected with HSV-2 GFP+. Wells were treated with either Vehicle (0.1% DMSO), Acyclovir 125 μM, or JR002 125 μM. Images were collected at 2 hour intervals for 48 hours post infection. Relative fluorescent intensity (RFI) calculated as the percent increase in fluorescence intensity relative to time 0 post infection. Bars represent the standard error of the mean.
JR002 is the selenoglycoside homolog of TE3048, the thioglycoside for which data for inhibition of HSV-1 was shown above. In FIG. 5A., the lower right quadrant represents high level cell damage, fluorescent HSV-2 GFP+ infected cells 24 hours post infection (24HPI), vehicle only.

[3] = tested on: SARS-CoV-2 (USA_WA1/2020); details: highest non-toxic dose; Vero E6, 72 hr
Text: In this assay, viral infection and replication leads to a loss of host cell viability, which is indirectly measured by an endpoint assessment of host cell viability after 72 hr. The CPE reduction assay indirectly monitors the ability of compounds to inhibit viral replication and infection through various molecular mechanisms, including direct inhibition of viral entry or enzymatic processes as well as acting on host pathways that modulate viral replication. Compounds with antiviral activity protect the host cells from the CPE of the virus, increasing viability.
Protocol: Vero E6 cells were premixed with SARS-CoV-2 for 5-10 min, dispensed into assay ready plates (pre-dispensed with compounds and controls). Cells and virus were incubated with compounds for 72 hr, then viability was assayed by Vero E6 host cell ATP content. 60 nL/well of compounds in DMSO was spotted into 384-well assay plates (Greiner, black clear bottom, tissue culture treated plates, #781091) by acoustic dispensing. In addition, 60 nL of the positive control Calpain inhibitor IV (stock concentration 2 mg/mL). 5 μL/well of media was dispensed into assay plates (MEM, 1% Pen/Strep/GlutaMax, 1% HEPES, 2% HI FBS). […] Luminescence signal was read on Perkin Elmer Envision or BMG CLARIOstar plate reader.

[4] = tested on: SARS-CoV-2 spike protein; details: previously demonstrated; blocks N-glycan processing at the oligomannose stage; cited from earlier work

CC(=O)N[C@@H]1[C@@H](O)[C@H](O)[C@@H](CO)O[C@H]1SC/C=C(\C)CCC=C(C)C [TE3054, GlcNAc-ß-S-geranyl]
inhibition of HSV-1 infectivity / plaque formation [1]: inhibitory

Nc1nc2c(ncn2COCCO)c(=O)[nH]1 [Acyclovir, reference compound]
inhibition of fluorescent HSV-2 GFP+ infected cells [2]: almost complete inhibition

CC(=O)N[C@@H]1[C@@H](OC(C)=O)[C@H](OC(C)=O)[C@@H](COC(C)=O)O[C@H]1SC/C=C(\C)CCC=C(C)C [TE3048, N,O-tetra-acetyl-GlcNAc-ß-S-geranyl]
inhibition of SARS-CoV-2 [3]: 60-70%

O=C1N[C@@H]2[C@@H](O)[C@@H](O)[C@H](O)[C@@H](CO)N2C1=O [kifunensine]
inhibition of N-glycan maturation and infectivity [4]: Inhibition of N-glycan maturation and infectivity

CC(=O)NC1C(OC(C)=O)[C@H](OC(C)=O)C(COC(C)=O)O[C@H]1[Se]C/C=C(\C)CCC=C(C)C (stereo partly drawn) [JR002, Geranyl 2-acetamido-2-deoxy-3,4,6-tri-O-acetyl-1-seleno-3-D-glucopyranoside]
inhibition of HSV-2 replication / infectivity ([2]; 125 μM, imaging for 48 hours post infection): potent inhibition of infectivity; also recorded: significantly inhibits
inhibition of fluorescent HSV-2 GFP+ infected cells [2]: almost complete inhibition
